Reference: patent US20070265261A1, “Dpp-IV Inhibitors” (priority 2004, published 2007)

Target: T1, DPP-IV (Homo sapiens, UniProt P27487)
T1 construct: Soluble human DPP-IV lacking the transmembrane anchor (Gly31-Pro766); Pre-Pro-alpha-mating factor leader (secretion signal) (N, cleaved yes); made in house
Assay: Inhibition of DPP-IV peptidase activity, continuous fluorimetric assay (cleavage of Gly-Pro-AMC)
Format: biochemical
Description: Inhibition of DPP-IV peptidase activity was monitored with a continuous fluorimetric assay. This assay is based on the cleavage of the substrate Gly-Pro-AMC (Bachem) by DPP-IV, releasing free AMC. The assay is carried out in 96-well microtiter plates. In a total volume of 100 μL, compounds are preincubated with […] DPP-IV employing a buffer containing 10 mM Hepes, 150 mM NaCl, 0.005% Tween 20 (pH 7.4). […] The final concentration of DMSO is 1%. The inhibitory potential of the compounds were determined.
Soluble human DPP-IV lacking the transmembrane anchor (Gly31-Pro766) was expressed in a recombinant YEAST-strain as Pre-Pro-alpha-mating fusion. The secreted product (rhuDPP-IV-Gly31-Pro766) was purified from fermentation broth (>90% purity).

T1 sequence (P27487 31-766): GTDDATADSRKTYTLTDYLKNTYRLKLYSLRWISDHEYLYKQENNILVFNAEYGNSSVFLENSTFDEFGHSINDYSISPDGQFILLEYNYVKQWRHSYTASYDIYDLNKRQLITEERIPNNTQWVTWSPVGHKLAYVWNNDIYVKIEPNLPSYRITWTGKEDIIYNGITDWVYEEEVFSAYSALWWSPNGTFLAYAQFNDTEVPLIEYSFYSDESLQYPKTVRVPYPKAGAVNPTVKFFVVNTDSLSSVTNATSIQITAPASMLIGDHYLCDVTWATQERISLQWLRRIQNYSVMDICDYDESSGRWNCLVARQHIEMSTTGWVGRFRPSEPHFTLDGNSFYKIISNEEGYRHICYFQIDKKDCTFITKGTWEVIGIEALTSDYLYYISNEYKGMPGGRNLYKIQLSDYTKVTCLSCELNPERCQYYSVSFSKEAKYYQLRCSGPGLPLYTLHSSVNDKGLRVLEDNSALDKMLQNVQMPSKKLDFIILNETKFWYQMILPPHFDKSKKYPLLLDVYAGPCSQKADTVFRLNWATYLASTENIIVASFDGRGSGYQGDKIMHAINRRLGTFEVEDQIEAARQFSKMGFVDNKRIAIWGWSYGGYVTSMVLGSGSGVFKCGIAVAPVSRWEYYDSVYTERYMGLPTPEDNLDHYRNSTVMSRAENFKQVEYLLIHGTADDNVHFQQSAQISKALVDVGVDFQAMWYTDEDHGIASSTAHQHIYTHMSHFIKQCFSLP

| IC50 | Structure (SMILES) |
| --- | --- |
| 101 to 1000 nM | N[C@@H](Cc1cc(F)ccc1F)C1CCN(C(=O)c2cnccn2)CC1 (single isomer, unassigned) [Example 44] |
| 1000 to 2000 nM | N[C@@H](Cc1cc(F)ccc1F)C1CCN(C(=O)c2ccc(C(F)(F)F)nc2)CC1 (single isomer, unassigned) [Example 47] |
| 101 to 1000 nM | N[C@@H](Cc1cc(F)ccc1F)C1CCN(C(=O)c2ccnc(C(F)(F)F)n2)CC1 (single isomer, unassigned) [Example 50] |
| 1000 to 2000 nM | N[C@@H](Cc1cc(F)ccc1F)C1CCN(C(=O)c2ccnn2C(F)F)CC1 (single isomer, unassigned) [Example 53] |
| 1000 to 2000 nM | N[C@@H](Cc1cc(F)c(F)cc1F)C1CCN(C(=O)c2ccnc(C(F)(F)F)n2)CC1 (single isomer, unassigned) [Example 65] |
| 101 to 1000 nM | N[C@H](Cc1cccc(Cl)c1)C1CCNCC1 (stereo in doubt) [Example 7, 2-(3-Chloro-phenyl)-1-piperidin-4-yl-ethylamine] |
| 101 to 1000 nM | CC(C)(C)OC(=O)N1CCC(C(N)Cc2cccc(Cl)c2)CC1 (stereo not shown) [Example 6, 4-[1-Amino-2-(3-chloro-phenyl)-ethyl]-piperidine-1-carboxylic acid tert.-butyl ester] |
| < 100 nM | N[C@H](Cc1cccc(Cl)c1)C1CCN(C(=O)c2ncccn2)CC1 [Example 8, {4-[(R)-1-Amino-2-(3-chloro-phenyl)-ethyl]-piperidin-1-yl}-pyrimidin-2-yl-methanone] |
| 101 to 1000 nM | NC(Cc1cccc(Cl)c1)C1CCN(C(=O)C2CC2)CC1 (stereo not shown) [Example 9] |
| < 100 nM | NC(Cc1cccc(Cl)c1)C1CCN(C(=O)c2ccccc2)CC1 (stereo not shown) [Example 10] |
| < 100 nM | NC(Cc1cccc(Cl)c1)C1CCN(C(=O)c2cccnc2)CC1 (stereo not shown) [Example 11] |
| 101 to 1000 nM | NC(Cc1cccc(Cl)c1)C1CCN(C(=O)CC2CC2)CC1 (stereo not shown) [Example 12] |
| 101 to 1000 nM | NC(Cc1cccc(Cl)c1)C1CCN(C(=O)C2CCOC2)CC1 (stereo not shown) [Example 13] |
| 101 to 1000 nM | NC(Cc1cccc(Cl)c1)C1CCN(C(=O)Cc2ccccc2)CC1 (stereo not shown) [Example 14] |
| < 100 nM | NC(Cc1cccc(Cl)c1)C1CCN(C(=O)c2cnccn2)CC1 (stereo not shown) [Example 15] |
| 101 to 1000 nM | NC(Cc1cccc(Cl)c1)C1CCN(C(=O)C2(C(F)(F)F)CC2)CC1 (stereo not shown) [Example 16] |
| < 100 nM | NC(Cc1cccc(Cl)c1)C1CCN(C(=O)c2ccc(C(F)(F)F)nc2)CC1 (stereo not shown) [Example 17] |
| 101 to 1000 nM | NC(Cc1cccc(Cl)c1)C1CCN(C(=O)c2cn[nH]c2)CC1 (stereo not shown) [Example 18] |
| < 100 nM | Cn1cc(C(=O)N2CCC(C(N)Cc3cccc(Cl)c3)CC2)c(C(F)(F)F)n1 (stereo not shown) [Example 19] |
| < 100 nM | NC(Cc1cccc(Cl)c1)C1CCN(C(=O)c2ncccn2)CC1 (stereo not shown) [Example 20] |
| 1000 to 2000 nM | N[C@@H](Cc1cccc(Cl)c1)C1CCN(C(=O)c2ncccn2)CC1 [Example 21] |
| < 100 nM | NC(Cc1cccc(Cl)c1)C1CCN(C(=O)c2ccnnc2)CC1 (stereo not shown) [Example 22] |
| < 100 nM | NC(Cc1cccc(Cl)c1)C1CCN(C(=O)c2cncnc2)CC1 (stereo not shown) [Example 23] |
| < 100 nM | Cc1cc(C(=O)N2CCC(C(N)Cc3cccc(Cl)c3)CC2)no1 (stereo not shown) [Example 24] |

| IC50 | Structure (SMILES) |
| --- | --- |
| < 100 nM | NC(Cc1cccc(Cl)c1)C1CCN(C(=O)c2ccnn2C(F)F)CC1 (stereo not shown) [Example 25] |
| < 100 nM | NC(Cc1cccc(Cl)c1)C1CCN(C(=O)c2ccn(C(F)F)n2)CC1 (stereo not shown) [Example 26] |
| < 100 nM | Cn1cncc1C(=O)N1CCC(C(N)Cc2cccc(Cl)c2)CC1 (stereo not shown) [Example 27] |
| < 100 nM | Cn1ncc(C(=O)N2CCC(C(N)Cc3cccc(Cl)c3)CC2)c1C(F)(F)F (stereo not shown) [Example 28] |
| 101 to 1000 nM | Cn1cnc(C(=O)N2CCC(C(N)Cc3cccc(Cl)c3)CC2)c1 (stereo not shown) [Example 29] |
| < 100 nM | Cn1nc(C(=O)N2CCC(C(N)Cc3cccc(Cl)c3)CC2)cc1C(F)(F)F (stereo not shown) [Example 30] |
| 101 to 1000 nM | Cn1nc(C(F)(F)F)cc1C(=O)N1CCC(C(N)Cc2cccc(Cl)c2)CC1 (stereo not shown) [Example 31] |
| < 100 nM | NC(Cc1cccc(Cl)c1)C1CCN(C(=O)c2cnccc2C(F)(F)F)CC1 (stereo not shown) [Example 32] |
| 101 to 1000 nM | NC(Cc1cccc(Cl)c1)C1CCN(C(=O)c2cc(C(F)(F)F)n[nH]2)CC1 (stereo not shown) [Example 33] |
| < 100 nM | NC(Cc1cccc(Cl)c1)C1CCN(S(=O)(=O)C2CC2)CC1 (stereo not shown) [Example 34, 2-(3-Chloro-phenyl)-1-(1-cyclopropanesulphonyl-piperidin-4-yl)-ethylamine] |
| < 100 nM | NC(Cc1cccc(Cl)c1)C1CCN(S(=O)(=O)c2ccccc2)CC1 (stereo not shown) [Example 35] |
| < 100 nM | NC(Cc1cccc(Cl)c1)C1CCN(S(=O)(=O)Cc2ccccc2)CC1 (stereo not shown) [Example 36] |
| < 100 nM | NC(Cc1cc(F)ccc1F)C1CCN(S(=O)(=O)C2CC2)CC1 (stereo not shown) [Example 37] |
| < 100 nM | N[C@H](Cc1cc(F)ccc1F)C1CCN(S(=O)(=O)C2CC2)CC1 [Example 38] |
| 101 to 1000 nM | N[C@@H](Cc1cc(F)ccc1F)C1CCN(S(=O)(=O)C2CC2)CC1 [Example 39] |
| < 100 nM | CC(C)(C)OC(=O)N1CCC(C(N)Cc2cc(F)ccc2F)CC1 (stereo not shown) [Example 40, 4-[1-Amino-2-(2,5-difluoro-phenyl)-ethyl]-piperidine-1-carboxylic acid tert-butyl ester] |
| < 100 nM | N[C@H](Cc1cc(F)ccc1F)C1CCN(C(=O)c2ncccn2)CC1 [Example 41] |
| 1000 to 2000 nM | N[C@@H](Cc1cc(F)ccc1F)C1CCN(C(=O)c2ncccn2)CC1 [Example 42] |
| < 100 nM | N[C@H](Cc1cc(F)ccc1F)C1CCN(C(=O)c2cnccn2)CC1 [Example 43] |
| < 100 nM | NC(Cc1cc(F)ccc1F)C1CCN(C(=O)c2cnccn2)CC1 (stereo not shown) [Example 45] |
| < 100 nM | N[C@H](Cc1cc(F)ccc1F)C1CCN(C(=O)c2ccc(C(F)(F)F)nc2)CC1 [Example 46] |
| < 100 nM | NC(Cc1cc(F)ccc1F)C1CCN(C(=O)c2ccc(C(F)(F)F)nc2)CC1 (stereo not shown) [Example 48] |
| < 100 nM | N[C@H](Cc1cc(F)ccc1F)C1CCN(C(=O)c2ccnc(C(F)(F)F)n2)CC1 [Example 49] |
| < 100 nM | NC(Cc1cc(F)ccc1F)C1CCN(C(=O)c2ccnc(C(F)(F)F)n2)CC1 (stereo not shown) [Example 51] |

| IC50 | Structure (SMILES) |
| --- | --- |
| < 100 nM | N[C@H](Cc1cc(F)ccc1F)C1CCN(C(=O)c2ccnn2C(F)F)CC1 [Example 52] |
| < 100 nM | NC(Cc1cc(F)ccc1F)C1CCN(C(=O)c2cnc(C(F)(F)F)nc2)CC1 (stereo not shown) [Example 54] |
| < 100 nM | NC(Cc1cc(F)ccc1F)C1CCN(C(=O)c2ncc(F)cc2F)CC1 (stereo not shown) [Example 55] |
| < 100 nM | NC(Cc1cc(F)ccc1F)C1CCN(C(=O)c2ccn(C(F)F)n2)CC1 (stereo not shown) [Example 56] |
| < 100 nM | NC(Cc1cc(F)ccc1F)C1CCN(C(=O)c2ncccc2C(F)(F)F)CC1 (stereo not shown) [Example 57] |
| < 100 nM | NC(Cc1cc(F)ccc1F)C1CCN(C(=O)c2cc(C(F)(F)F)ccn2)CC1 (stereo not shown) [Example 58] |
| < 100 nM | NC(Cc1cc(F)ccc1F)C1CCN(C(=O)c2cccc(C(F)(F)F)n2)CC1 (stereo not shown) [Example 59] |
| < 100 nM | N[C@H](Cc1cc(F)ccc1F)C1CCN(C(=O)c2nccc(C(F)(F)F)n2)CC1 [Example 60] |
| 101 to 1000 nM | N[C@@H](Cc1cc(F)ccc1F)C1CCN(C(=O)c2nccc(C(F)(F)F)n2)CC1 [Example 61] |
| < 100 nM | N[C@H](Cc1cc(F)c(F)cc1F)C1CCN(C(=O)c2ncccn2)CC1 [Example 63, {4-[(R)-1-amino-2-(2,4,5-trifluoro-phenyl)-ethyl]-piperidine-1yl}-pyrimidine-2-yl-methanone] |
| < 100 nM | N[C@H](Cc1cc(F)c(F)cc1F)C1CCN(C(=O)c2ccnc(C(F)(F)F)n2)CC1 [Example 64] |
| < 100 nM | NC(Cc1cc(F)c(F)cc1F)C1CCN(C(=O)c2ccnc(C(F)(F)F)n2)CC1 (stereo not shown) [Example 66] |
| < 100 nM | N[C@H](Cc1cc(F)c(F)cc1F)C1CCN(C(=O)c2ccc(C(F)(F)F)nc2)CC1 [Example 67] |
| 101 to 1000 nM | N[C@H](Cc1cc(F)cc(F)c1F)C1CCN(C(=O)c2ncccn2)CC1 [Example 68] |
| < 100 nM | N[C@H](Cc1cc(F)cc(F)c1F)C1CCN(C(=O)c2ccnc(C(F)(F)F)n2)CC1 [Example 69] |
| 101 to 1000 nM | CC(C)(C)OC(=O)N1CCCC(C(N)Cc2cccc(Cl)c2)C1 (stereo not shown) [Example 70, 3-[1-Amino-2-(3-chloro-phenyl)-ethyl]-piperidine-1-carboxylic acid tert.-butyl ester] |
| 1000 to 2000 nM | NC(Cc1cccc(Cl)c1)C1CCCNC1 (stereo not shown) [Example 71, 2-(3-Chloro-phenyl)-1-piperidin-3-yl-ethylamine] |
| < 100 nM | CS(=O)(=O)Nc1cccc(C(=O)N2CCC(C(N)Cc3cccc(Cl)c3)CC2)c1 (stereo not shown) [Example 72, N-(3-{4-[1-Amino-2-(3-chloro-phenyl)-ethyl]-piperidine-1-carbonyl}-phenyl)-methane-sulphonamide] |
| 101 to 1000 nM | NC(Cc1cccc(Cl)c1)C1CCN(c2ncccn2)CC1 (stereo not shown) [Example 73] |
| < 100 nM | NC(Cc1cc(F)ccc1F)C1CCN(C(=O)N2CCC(F)(F)C2)CC1 (stereo not shown) [Example 74, {4-[1-Amino-2-(2 5-difluoro-phenyl)-ethyl]-piperidin-1-yl}-(3,3-difluoro-pyrrolidin-1-yl)-methanone] |
| < 100 nM | NC(Cc1cccc(Cl)c1)C1CCN(C(=O)N2CCOCC2)CC1 (stereo not shown) [Example 75] |
| < 100 nM | NC(Cc1cccc(Cl)c1)C1CCN(C(=O)N2CCCC2)CC1 (stereo not shown) [Example 76] |
